# Assay results taken from ChEMBL document CHEMBL1157501, “Novel fluorinated acridone derivatives. Part 1: synthesis and evaluation as potential anticancer agents” (Bioorg Med Chem Lett, 2008).
# Tests used:
# BT-549 = experiment: Antiproliferative activity against human BT549 cells after 72 hrs by alamar blue assay; type: functional, cell-based; conditions: BT-549, 72 h
# BT-20 = experiment: Antiproliferative activity against human BT20 cells after 72 hrs by Alamar Blue assay; type: functional, cell-based; conditions: BT-20, 72 h
# SW480 = experiment: Antiproliferative activity against human SW480 cells after 72 hrs by Alamar Blue assay; type: functional, cell-based; conditions: SW480, 72 h
# Jurkat = experiment: Antiproliferative activity against human Jurkat cells after 72 hrs by Alamar Blue assay; type: functional, cell-based
# MCF7 = experiment: Growth inhibition of human MCF7 cells at 10 uM relative to control; type: functional
# T47D = experiment: Growth inhibition of human T47D cells at 10 uM relative to control; type: functional
# HOP-92 = experiment: Growth inhibition of human HOP92 cells at 10 uM relative to control; type: functional
# A549 = experiment: Growth inhibition of human A549 cells at 10 uM relative to control; type: functional
# HCT-116 = experiment: Growth inhibition of human HCT116 cells at 10 uM relative to control; type: functional
# HT-29 = experiment: Growth inhibition of human HT29 cells at 10 uM relative to control; type: functional
# MOLT-4 = experiment: Growth inhibition of human MOLT4 cells at 10 uM relative to control; type: functional
# [1] = Growth inhibition of human HL60(TB) cells at 10 uM relative to control; type: functional, HL-60(TB); conditions: HL-60
# CAKI-1 = experiment: Growth inhibition of human CAKI1 cells at 10 uM relative to control; type: functional
# 786-0 = experiment: Growth inhibition of human 786-0 cells at 10 uM relative to control; type: functional
# UACC-257 = experiment: Growth inhibition of human UACC257 cells at 10 uM relative to control; type: functional
# SK-MEL-28 = experiment: Growth inhibition of human SK-MEL-28 cells at 10 uM relative to control; type: functional
# SF-295 = experiment: Growth inhibition of human SF295 cells at 10 uM relative to control; type: functional
# SNB-75 = experiment: Growth inhibition of human SNB75 cells at 10 uM relative to control; type: functional
# CCRF-CEM = experiment: Growth inhibition of human CCRF-CEM cells at 10 uM relative to control; type: functional
SMILES,IC50 (BT-549),IC50 (BT-20),IC50 (SW480),IC50 (Jurkat),inhibition at 10 µM (MCF7),inhibition at 10 µM (T47D),inhibition at 10 µM (HOP-92),inhibition at 10 µM (A549),inhibition at 10 µM (HCT-116),inhibition at 10 µM (HT-29),inhibition at 10 µM (MOLT-4),inhibition at 10 µM [1],inhibition at 10 µM (CAKI-1),inhibition at 10 µM (786-0),inhibition at 10 µM (UACC-257),inhibition at 10 µM (SK-MEL-28),inhibition at 10 µM (SF-295),inhibition at 10 µM (SNB-75),inhibition at 10 µM (CCRF-CEM)
Cc1c2c(nc3ccc(Cl)cc13)CC(C(F)(F)F)CC2=O (configuration not stated),12.1 µM,6.7 µM,15.3 µM,5.1 µM,95%,43%,58%,< 20%,< 20%,43%,95%,< 20%,< 20%,< 20%,< 20%,< 20%,< 20%,< 20%,
O=C1CC(C(F)(F)F)Cc2nc3ccc(Br)cc3c(-c3ccccc3F)c21 (configuration not stated),17.4 µM,23.3 µM,15.5 µM,11.6 µM,< 20%,< 20%,48%,< 20%,35%,< 20%,< 20%,29%,45%,62%,< 20%,< 20%,< 20%,< 20%,28%
O=C1CC(C(F)(F)F)Cc2nc3ccccc3c(-c3ccccc3)c21 (configuration not stated),,,,,< 20%,< 20%,70%,< 20%,70%,< 20%,< 20%,45%,< 20%,< 20%,77%,< 20%,< 20%,< 20%,< 20%
